Data: patent US6429204B1, “Method of inhibiting cancer growth” (University of Miami, priority 1997, dated 2002)

Columns and labels:
TSU PR-1 = assay: Cytotoxicity GI50 (MTT and thymidine incorporation), TSU PR-1; assay type: cell-based; settings: Homo sapiens, TSU-Pr1
Experimental: (§1) To confirm this observation, we compared the cytotoxicities of CMT-3 and doxycycline for a panel of common human prostate cancer cell lines. Cytotoxicity was measured using the MTT assay (see above) and a cellular thymidine incorporation assay as described by Lokeshwar et al. (1995a). The 50% growth inhibition (GI50) values obtained using both assays were identical. As shown in the data summarized in Table 3, below, CMT-3 was two- to eight-fold more cytotoxic than doxycycline.
(§2) Growth inhibition was calculated from linear regression of the dose-response curves generated for each experiment using log(dose) vs. cell proliferation (% of control). Correlation coefficient (r) was always ≧0.95 (negative). Results are presented as Mean±SEM of at least three GI50 values calculated from each experiment.

[1] = MTS cytotoxicity assay, E-10; settings: human, E-10 clone of MDA-MB-231 breast carcinoma cells, percent cytotoxicity, two days
Experimental: A panel of chemically modified tetracycline compounds and doxycycline were tested for cytotoxicity against two carcinomas: COLO 205 (a human colon carcinoma-derived cell line) and the E-10 clone of MDA-MB-231 (a human breast carcinoma-derived cell line). Cytoxicity was measured using a conventional assay for viability with a tetrazolium salt (MTS). Cells were grown in media containing the CMTs at concentrations ranging from 5 μM to 100 μM for two days. The cells were then incubated with the MTS for several hours before removal of the supernatant medium for determination of formazan, which is generated only by the viable cells. Results are expressed as percent cytotoxicity, which is simply the percent decline in measured formazan concentration in the sampled medium.

C8161 cells = assay: C8161 cell proliferation (doubling time); assay type: cell-based, human; settings: 50 μg/mL; for Doubling Time: on plastic, DMSO 22 hr
Experimental: Cell Culture and Maintenance: C8161 cells, a human melanoma cell line, were maintained in Dulbecco's modified Eagle's medium (DMEM; […] These cells were routinely screened for Mycoplasma contamination using the GenProbe Rapid Detection System (Fisher Scientific; Chicago, Ill.). Chemically Modified Tetracyclines: Fresh stock solutions of the chemically modified tetracycline compounds (2 mg/mL) were prepared for each experiment by hydrating in 2% dimethyl sulfoxide (DMSO)/water pH 10, then adjusting to pH 7.4 using 1.0 M HCl. […] Sigma Chem. Co.; control) or 50 μg/mL of doxycycline or the other CMTs (three wells on each plate per compound). […] The doubling time for C8161 cells in the presence of each compound was then determined and compared to the DMSO treated cells (control).

Dunning MAT LyLu cells = assay: Matrigel invasion assay (Boyden chamber, MTT), MAT LyLu; assay type: cell-based, rat
Experimental: In this method, 4×10^5 tumor cells were plated on the top chamber of the Boyden chemotaxis assay chambers (Costar Transwell plates). The bottom side of the chamber was a 12 μm-pore polycarbonate filter layered with 0.5 mm thick layer of Matrigel. The bottom well contained a chemoattractant, a serum-free culture-conditioned medium from FHS 733 cells, a line of human fetal lung fibroblasts (ATCC No. HTB-157). Cancer cells (4×10^5) were plated in the top wells of the plates. Doxycycline or CMTs were diluted in a serum-free medium to 5 μg/mL, and were added to both top and bottom chambers. […] After 48 hr incubation, MTT was added to both the top and bottom wells (0.5 mg/mL), and incubation was continued for 4 hr. Wells were then emptied, and the cells from the undersides of the filter were pooled with those in the bottom wells with a filter tip. The reduced MTT (formazan) from top and bottom wells was solubilized with DMSO overnight, and absorbance (O.D.) at 515 nm was measured. The ratio of the O.D. from the bottom wells to that of the total (i.e., O.D. of top plus bottom wells) was taken as the invasive potential. […] The MTT assay procedure also normalizes the coincident inhibition due to the cytotoxic effects of the agents under investigation. Results presented are from three independent experiments.

LNCaP = assay: Cytotoxicity GI50 (MTT and thymidine incorporation), LNCaP; assay type: cell-based; settings: Homo sapiens
Experimental: as §1, §2

PC-3 = assay: Cytotoxicity GI50 (MTT and thymidine incorporation), PC-3; assay type: cell-based; settings: Homo sapiens
Experimental: as §1, §2

ALVA 101 = assay: Cytotoxicity GI50 (MTT and thymidine incorporation), ALVA 101; assay type: cell-based; settings: Homo sapiens
Experimental: as §1, §2

[2] = tested on: C8161 human melanoma cells; assay: In vitro invasion assay (MICS), laminin/collagen IV/gelatin matrix-coated filter; assay type: cell-based; settings: 3, 20 and 50 μg/mL; for Percent Inhibition of invasive potential: 48 hr
Experimental: The in vitro invasive potentials of the control (DMSO only) and chemically-modified tetracycline treated cells were measured using a modified Boyden chamber as previously described (Membrane Invasion Culture System, MICS). An intervening barrier consisting of a polycarbonate filter containing 10 μm pores (Osmonics, Livermore, Calif.) coated with a defined matrix of human laminin/collagen IV/gelatin (Sigma, St. Louis, Mo.) was used for these studies. […] Doxycycline or individual CMTs were then added to different wells of the chamber at 3, 20 or 50 μg/mL 2 hr post-seeding and daily during the assay. After 48 hr, the cells were removed from the lower wells and the number of invasive cells was determined and compared to the original number of cells seeded into the upper wells. Where appropriate, data were corrected for proliferation during the period of the in vitro assay.

Dunning MAT LyLu tumor = assay: MAT LyLu tumor incidence, growth and metastasis, predosing 7 days before implant; assay type: in vivo, Copenhagen rats; settings: for tumor growth rate (time to reach tumor volume of 3 cm^3): 40 mg/kg predosing, animals with measurable tumors, control 15.9±2.0; for decrease in the number of lung metastases: summary b179, predosing context; for remission of palpable tumors (rats): two separate experiments
Experimental: Tumor Generation and Treatment: Dunning MAT LyLu cells were harvested from culture flasks, and a 0.5 mL suspension containing from 2×10^5 to 2×10^6 cells/mL was inoculated into the dorsal flank of adult Copenhagen rats (Harlan Sprague Dawley, Indianapolis, Ind.). The rats weighed 250-300 g, and were 90-100 days old. Tumors were detected by palpating the skin around the site of injection starting 3 days following implant of the tumor cells (Lokeshwar et al. 1995a).
Drug Treatment In Vivo: Doxycycline and CMT-3 were dissolved in a 2% aqueous solution of a soluble form of carboxymethyl cellulose (Sigma Cat. No. C-5678), and a fresh solution was made up daily. Rats were gavaged daily with 1 mL of the drug solution (concentrations specified below), or the vehicle (2% carboxymethyl cellulose). Tumor growth was recorded three times a week, and rats were weighed weekly. The effect of various treatments on tumor growth was monitored over time using calipers, and the volume approximated to an ellipsoid (i.e., volume=length×width×height×0.5236) (Lokeshwar et al. 1993b). Tumor growth rate was determined by regression analysis of tumor volume versus time, for each tumor-bearing rat. Mean tumor growth rate (time to reach a fixed volume) for each treatment group was then used to evaluate the statistical significance of treatment efficacy using the INSTAT statistical program (Ravitz Software, San Diego, Calif.). Rats were euthanized once the tumor volume reached ≧10 cm^3. At that time animals were necropsied, tumors and lungs were removed and fixed in Bouin's fixative. Macroscopic tumor foci on the lungs were counted under a dissecting microscope.
In another series of experiments, we examined whether predosing host animals with the drugs would affect tumor growth and metastasis. Daily gavage of control or drugs (doxycycline or CMT-3; 40 mg/kg) was begun 7 days prior to the injections of the MAT LyLu tumor cells (2×10^5 cells/animal) and continued for a total of 21 days.
Tumor growth rates were calculated from thrice-weekly measurement of tumor volume with linear regression analysis of log-transformed volume measurements (Dudak et al. 1996).

DU 145 = assay: Cytotoxicity GI50 (MTT and thymidine incorporation), DU 145; assay type: cell-based; settings: Homo sapiens
Experimental: as §1, §2

Question: With `NC(=O)C1=C(O)CC2CC3Cc4cccc(O)c4C(=O)C3=C(O)C2(O)C1=O` (centres unmarked) [CMT-3, 6-demethyl-6-deoxy-4-de(dimethylamino)tetracycline] as the compound, how does the GI50 (TSU PR-1) read?
Answer: The GI50 was 14.7 ± 2.64 µM.

Question: And the cytotoxicity at 2 days, 5 µM [1]?
Answer: Its cytotoxicity at 2 days, 5 µM is 0%.

Question: What about the “Doubling Time” value (C8161 cells) of the same compound?
Answer: Its value is 28 h.

Question: And the “increase of doubling time” value (C8161 cells; versus DMSO)?
Answer: Its value is roughly 27%.

Question: And the “effect on invasive potential after pretreatment only” value (Dunning MAT LyLu cells; 48 hour pretreatment, no drug in the invasion chamber)?
Answer: The value was “only a moderate effect”.

Question: What about the “inhibition of invasive/metastatic potential (Matrigel invasion)” value (Dunning MAT LyLu cells; MAT LyLu, 5 μg/mL, 48 hr) of the same compound?
Answer: Its value is “equally inhibited”.

Question: And the GI50 (LNCaP)?
Answer: The GI50 was 5 ± 2.1 µM.

Question: What about the GI50 (PC-3) of the same compound?
Answer: Its GI50 is 10.6 ± 2.1 µM.

Question: And the GI50 (ALVA 101)?
Answer: The GI50 was 6.82 ± 0.75 µM.

Question: What about the “Type of Inhibition” value [2] of the same compound?
Answer: The value was “dose dependent”.

Question: What about the “Percent Inhibition of invasive potential” value [2] of the same compound?
Answer: The value was 35-74%.

Question: What about the “tumor growth rate (time to reach tumor volume of 3 cm^3)” value (Dunning MAT LyLu tumor) of the same compound?
Answer: The value was 20.2 ± 3.5 days.

Question: And the “tumor incidence lower than control or doxycycline groups by” value (Dunning MAT LyLu tumor; 40 mg/kg, predosing)?
Answer: The value was 55%±18.

Question: What about the “tumor remission (inhibition of tumor incidence)” value (Dunning MAT LyLu tumor; 40 mg/kg, predosing) of the same compound?
Answer: The value was “tumor remission (inhibition of tumor incidence) occurred”.

Question: What about the “gain in body weights” value (Dunning MAT LyLu tumor; at termination (6-month post-treatment observation), control 3%) of the same compound?
Answer: Its value is 12%.

Question: What about the “decrease in MTF versus controls” value (Dunning MAT LyLu tumor; predosing) of the same compound?
Answer: Its value is 37.5%.

Question: What about the “MTF in treated animals” value (Dunning MAT LyLu tumor; predosing, animals with tumors ≧10 cm^3, controls 74.2±6.4) of the same compound?
Answer: Its value is 46.3±6.7.

Question: What about the tumor incidence (Dunning MAT LyLu tumor; preparation of CMT-3 of greater purity) of the same compound?
Answer: The tumor incidence was 43%.

Question: And the “decrease in the number of lung metastases” value (Dunning MAT LyLu tumor)?
Answer: Its value is 58±8%.

Question: What about the “remission of palpable tumors (rats)” value (Dunning MAT LyLu tumor) of the same compound?
Answer: Its value is 30%.

Question: And the GI50 (DU 145)?
Answer: Its GI50 is 5.06 ± 1.18 µM.

Question: With `C[C@H]1c2cccc(O)c2C(=O)C2=C(O)[C@]3(O)C(=O)C(C(N)=O)=C(O)[C@@H](N(C)C)[C@@H]3[C@@H](O)[C@@H]21` [Doxycycline, 6α-deoxy-5-hydroxy-tetracycline, reference compound] as the compound, how does the GI50 (TSU PR-1) read?
Answer: Its GI50 is 41 ± 11 µM.

Question: And the cytotoxicity at 2 days, 5 µM [1]?
Answer: Its cytotoxicity at 2 days, 5 µM is 0%.

Question: And the cytotoxicity at 2 days, 10 µM ([1]; 10 μM)?
Answer: The cytotoxicity at 2 days, 10 µM was 0%.

Question: And the cytotoxicity at 2 days, 20 µM ([1]; 20 μM)?
Answer: Its cytotoxicity at 2 days, 20 µM is 4.5%.

Question: And the cytotoxicity at 2 days, 50 µM ([1]; 50 μM)?
Answer: The cytotoxicity at 2 days, 50 µM was 24.2%.

Question: What about the cytotoxicity at 2 days, 100 µM ([1]; 100 μM) of the same compound?
Answer: The cytotoxicity at 2 days, 100 µM was 29.5%.

Question: And the “Doubling Time” value (C8161 cells)?
Answer: Its value is 22 h.

Question: And the inhibition at 5 µg/mL (Dunning MAT LyLu cells; Rattus norvegicus, MAT LyLu, 5 μg/mL, 48 hr, read-out: inhibition of invasive/metastatic potential (Matrigel invasion))?
Answer: Its inhibition at 5 µg/mL is 68 ± 4.2%.

Question: What about the GI50 (LNCaP) of the same compound?
Answer: The GI50 was 13.9 ± 2.97 µM.

Question: And the GI50 (PC-3)?
Answer: Its GI50 is 36.4 ± 2.5 µM.

Question: What about the GI50 (ALVA 101) of the same compound?
Answer: Its GI50 is 36.6 ± 2.42 µM.

Question: And the “Percent Inhibition of invasive potential” value [2]?
Answer: Its value is 12-79%.

Question: What about the tumor incidence (Dunning MAT LyLu tumor; 40 mg/kg daily, begun 7 days before implant, separate experiments) of the same compound?
Answer: The tumor incidence was greater than 90%.

Question: What about the “tumor growth rate (time to reach tumor volume of 3 cm^3)” value (Dunning MAT LyLu tumor) of the same compound?
Answer: The value was 16.7 ± 1.9 days.

Question: What about the “decrease in the number of lung metastases” value (Dunning MAT LyLu tumor) of the same compound?
Answer: Its value is 33±7.0%.

Question: What about the “remission of palpable tumors (rats)” value (Dunning MAT LyLu tumor) of the same compound?
Answer: Its value is 20%.

Question: What about the GI50 (DU 145) of the same compound?
Answer: The GI50 was 43.6 ± 9.36 µM.
